Results on 21 compounds are retold here after ChEMBL document CHEMBL5370524, “Design and synthesis of a novel class of PDE4 inhibitors with antioxidant properties as bifunctional agents for the potential treatment of COPD” (Eur J Med Chem, 2023).

Calls of active or inactive are those of the source. The rule behind the calls is not given here.

The nature of data set [1]: Antioxidant activity assessed as DPPH radical scavenging activity at 10 uM by spectrophotometric analysis relative to control. The format is functional.
Data set [2] is described as follows: Metabolic stability in human liver microsome assessed as half life measured upto 45 mins in presence of NADPH by LC-MS/MS analysis. Format: ADME. The settings on record: liver microsomes. A general note: Liver microsomes are vesicles of endoplasmic reticulum, rich in cytochrome P450 enzymes.
The nature of data set [3]: Metabolic stability in human liver microsome assessed as intrinsic clearance measured upto 45 mins in presence of NADPH by LC-MS/MS analysis. As to conditions: liver microsomes, read-out: CLH. The format is ADME.
Data set [4] is described as follows: Antioxidant activity assessed as DPPH radical scavenging activity by spectrophotometric analysis. Format: functional. (Loss of DPPH colour is used to gauge radical scavenging.)
The species named for data set [5] is Mus musculus. The data set can be described thus: Antioxidant activity in Fe2+-induced mouse assessed as inhibition of MDA production in lung homogenate at 250 to 1000 uM incubated for 60 mins. The format is functional. The settings on record: dose 250-1000 µM.
The subject of data set [6] is RAW264.7. The data set can be described thus: Antiinflammatory activity in LPS-induced mouse RAW264.7 cells assessed as inhibition of TNF-alpha production at 2.5 to 10 uM pretreated with compound for 1 hr followed by LPS-stimulation and measured after 12 hrs by ELISA analysis. Format: functional, cell-based. The settings on record: dose 2.5-10 µM, time 13.0 hrs. A general note: In an ELISA, binding on a coated surface is turned into a signal by an enzyme label.

For another data set, the target named is Phosphodiesterase 4 (Homo sapiens, UniProt P27815+Q08499+Q07343+Q08493). The data set can be described thus: Inhibition of PDE4 (unknown origin) using fluorescein-cAMP as substrate incubated for 45 mins by fluorescence polarization assay. Format: protein assay.
In data set [7] the test system is RAW264.7. The data set can be described thus: Cytotoxicity against LPS-induced mouse RAW264.7 cells assessed as reduction in cell viability at 2.5 to 10 uM measured after 12 hrs by CCK-8 assay. The format is toxicity, cell-based. The settings on record: raw264.7, 12 h, dose 2.5-10 µM.
The test system of data set [8] is Mus musculus. The data set can be described thus: Antiinflammatory activity in LPS-induced ICR mouse model assessed as reduction in TNF-alpha production in serum at 50 mg/kg, ip pretreated with compound for 1 hr followed by LPS-induction and measured after 60 mins ny ELISA analysis. Format: functional. More on the design: scale not given: the % may be the effect or the level left. As to conditions: time 2 hrs.

Data set [9] can be described thus: Metal chelating activity assessed as Fe2+-complex formation capacity at 0.1 to 1 mM by spectrophotometry analysis. As to conditions: dose 0.1-1 mM.
For data set [10], the system named is Mus musculus. The data set can be described thus: Antiinflammatory activity in LPS-induced ICR mouse model assessed as reduction in TNF-alpha production in serum at 100 mg/kg, ip pretreated with compound for 1 hr followed by LPS-induction and measured after 60 mins ny ELISA analysis. The settings on record: time 2 hrs. More on the design: scale not given: the % may be the effect or the level left. The format is functional.

Data set [11] can be described thus: Metal chelating activity assessed as Fe3+-reducing capacity at 0.006 to 0.2 mM incubated for 30 mins by spectrophotometry analysis. The settings on record: dose 0.006-0.2 mM.
Data set [12] deals with Mus musculus. The data set is described as follows: Antiinflammatory activity in LPS-induced ICR mouse model assessed as reduction in TNF-alpha production in serum at 10 mg/kg, ip pretreated with compound for 1 hr followed by LPS-induction and measured after 60 mins ny ELISA analysis. The format is functional. More on the design: scale not given: the % may be the effect or the level left. As to conditions: time 2 hrs.

For `CC1=NN(c2ccccc2)C(=O)C1`, the Activity in [1] was determined as 23.6%.
`O=C(c1ccc(F)cc1)C1CCN(CCn2c(=O)[nH]c3ccccc3c2=O)CC1` [KETANSERIN]: the half-life in [2] was determined as 31.1 min. The CLint scaled in data set [3] was 56 mL/min/kg.
Consider `COc1ccc(/C=C/C(=O)c2ccc(O)c(O)c2)cc1OC1CCCC1`, for which the 50% inhibitory concentration (IC50) turned out to be 5.95 µM in data set [4] and 1.82 µM on Phosphodiesterase 4. The result in the data set listed under Mus musculus [5] and with RAW264.7 [6] was Active. Besides, the Activity entry with RAW264.7 [7] is on record as “Non-Toxic”.
`COc1ccc(/C=C2\COc3cc(O)ccc3C2=O)cc1OC`: in data set [1], the outcome was inactive.
`CCOc1cc(/C=C/C(=O)c2ccc(O)c(O)c2)ccc1OC`: the IC50 in data set [4] is 6.2 µM; against Phosphodiesterase 4, 1.45 µM. Also, the result in the data set filed under Mus musculus [5] and in the data set with RAW264.7 [6] was Active. Further, in the data set on RAW264.7 [7], the Activity entry is “Non-Toxic”.
In the case of `COc1ccc(/C=C/C(=O)c2ccc(O)cc2)cc1OC`, in data set [1], the result was inactive.
Same read-out and setting: in the case of `O=C(/C=C/c1ccc(O)c(O)c1)c1ccc(O)cc1` it was 60.4%; in that of `COc1ccc(/C=C2\Oc3cc(O)ccc3C2=O)cc1OC`, “inactive”.
On the same count and under the same terms, in the case of `COc1ccc2c(c1)OC/C(=C\c1ccc(O)c(OC)c1)C2=O` it was “inactive”.
Turning to `COc1ccc(/C=C/C(=O)c2ccc(O)c(O)c2)cc1OCC1CC1`, in data set [2], the half-life was 48 min. In addition, the IC50 in data set [4] was 6.97 µM; at Phosphodiesterase 4, 1.56 µM. The result (in the data set filed under Mus musculus [5]; in the data set with RAW264.7 [6]; in [9]; in data set [11]) was Active. Moreover, the Activity in the data set on Mus musculus [8] is on record as 20.2%; with Mus musculus [10], 54.7%; with RAW264.7 [7], “Non-Toxic”. The CLint scaled in [3] was 36.2 mL/min/kg.
In the case of `COc1ccc(/C=C2\Oc3cc(O)ccc3C2=O)cc1OCC1CC1`, the result in data set [1] was inactive.
In the case of `O=C1/C(=C/c2ccc(O)c(O)c2)Oc2cc(O)ccc21`, the Activity in data set [1] was 30.2%.
For the compound `COc1ccc(/C=C2\COc3cc(O)ccc3C2=O)cc1OCC1CC1`, the result in data set [1] was inactive.
On to `COc1ccc(/C=C2\COc3cc(O)ccc3C2=O)cc1O`, for which, in [1], the outcome was inactive.
Turning to `COc1ccc(/C=C/C(=O)c2ccc(O)c(O)c2)cc1OC(C)C`, the figures for the IC50 (in data set [4]; against Phosphodiesterase 4) were 6.36 µM and 1.53 µM, respectively. Besides, the result in the data set listed under Mus musculus [5] and in the data set with RAW264.7 [6] was Active. Moreover, the Activity result with RAW264.7 [7] is listed as “Non-Toxic”.
For the compound `O=C1/C(=C/c2ccc(O)c(O)c2)COc2cc(O)ccc21`, the Activity in data set [1] was determined as 48.3%.
Turning to `COc1ccc(C2CNC(=O)C2)cc1OC1CCCC1` (stereo not drawn) [ROLIPRAM], the Activity with Mus musculus [12] is given as 55.1%.
In the case of `COc1ccc(/C=C/C(=O)c2ccc(O)c(O)c2)cc1OC`, the IC50 in data set [4] was found to be 10.9 µM; on Phosphodiesterase 4 it was 2.78 µM. Further, the result in the data set listed under Mus musculus [5] and in the data set on RAW264.7 [6] was Active. The Activity entry with RAW264.7 [7] is reported as “Non-Toxic”.
Turning to `COc1ccc(/C=C/C(=O)c2ccc(O)cc2)cc1OCC1CC1`, the outcome in [1] was inactive.
Take `COc1cc(/C=C2\COc3cc(O)ccc3C2=O)ccc1O`: the outcome in data set [1] was inactive.
On the same count and under the same terms, the value for `COc1ccc2c(c1)OC/C(=C\c1ccc(O)c(O)c1)C2=O` was 49.6%.

Usually half-life stands for how long it takes for the measured level to halve. By IC50 is commonly meant the concentration needed to halve the response being measured.
